Measurements as given in patent US20110282066A1, “SCREENING METHOD FOR SUBSTANCE USEFUL AS AGENT FOR TREATING PROSTATE CANCER” (priority 2009, published 2011).

Molecular target: T1, human 17βHSD type 3 (Homo sapiens, UniProt P37058)
T1 construct: A full-length cDNA encoding human 17βHSD type 3 used in the pharmacological test; made in house; host or cells: human fetus kidney-derived 293 cells (transfected; supernatant of disrupted cells, not purified)
T1 sequence (P37058 1-310): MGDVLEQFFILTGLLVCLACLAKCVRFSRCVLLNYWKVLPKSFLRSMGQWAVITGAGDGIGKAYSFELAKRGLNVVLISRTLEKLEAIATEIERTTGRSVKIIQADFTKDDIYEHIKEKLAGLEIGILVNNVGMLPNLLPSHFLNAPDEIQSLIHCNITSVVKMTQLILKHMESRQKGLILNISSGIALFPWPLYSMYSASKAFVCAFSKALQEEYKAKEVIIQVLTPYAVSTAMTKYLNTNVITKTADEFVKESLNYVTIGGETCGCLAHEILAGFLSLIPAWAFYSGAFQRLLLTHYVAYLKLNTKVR
Experiment: Measurement of enzyme activity of human 17βHSD type 3
Type: biochemical
Details: enzyme source: supernatant of transformed 293 cells; read-out: Type3 IC50
Protocol: A full-length cDNA encoding human 17βHSD type 3 used in the pharmacological test of this test example was obtained by the PCR method using a cDNA derived from human testis as a template. The nucleotide sequence of the obtained cDNA was analyzed by the dideoxyterminator method, and the clone matched with the known human 17βHSD type 3 sequence (GenBank accession No. BC034281) was selected. Subsequently, human fetus kidney-derived cell line, 293 cells, were transformed with a plasmid containing the cDNA, and the cells were collected 24 hours later. […]
Enzyme activity was measured referring to Trevor M. Penning, et al., Biochem. J., 351, 67-77, (2000). Specifically, using a 100 mM potassium phosphate buffer (pH 6.0), (1) the enzyme purified in Section 1 at a final concentration of 10 μg/mL, (2) androstenedione at a final concentration of 300 nM, (3) NADPH at a final concentration of 200 μM, and (4) a test substance, were mixed to react at room temperature for 2 hours, and then the amount of testosterone produced was measured using DELFIA (trademark) Testosterone Reagents R050-201 (manufactured by PerkinElmer). […] Then, IC50 values were calculated by the Logistic regression method.

IC50	Structure (SMILES)
> 10 µM	COc1nc2cc(C(F)(F)F)ccc2n1-c1cccc(C(=O)O)c1 [compound 32, 3-[2-methoxy-5-(trifluoromethyl)-1H-benzimidazol-1-yl]benzoic acid]
> 10 µM	O=C(O)c1cccc(-n2c(COc3ccccc3)nc3cc(C(F)(F)F)ccc32)c1 [compound 44, 3-[2-phenoxymethyl-5-(trifluoromethyl)-1H-benzimidazol-1-yl]benzoic acid]

Test system: testosterone production in the CWR22R tumor
Experiment: Testosterone production suppression in the tumor of a CWR22R tumor-bearing mouse
Type: in vivo, nude mouse
Details: 22Rv1, 10 mg/kg oral, androstenedione 1 ng/100 mm^3 into the tumor an hour later, dissection an hour after that, read-out: Inh (%) testosterone production suppression rate
Excerpt: Inhibition rate (%)=100×(average value of the hormone concentration in the solvent for administering test substance-administered group−average value of the hormone concentration in the test substance-administered group)/(average value of the hormone concentration in the solvent for administering test substance-administered group−average value of the background hormone concentration)
A CWR22R tumor was excised from a CWR22R subcutaneous tumor-bearing nude mouse. The excised tumor was segmented to become tumor specimens with size of about 5 mm per specimen. The tumor specimens were washed with a 20% serum-containing RPMI1640 culture medium twice and then stirred for about 20 minutes in a 0.1% protease and 20% serum-containing RPMI1640 culture medium. Supernatant was recovered to recover cells through centrifugation. These procedures were repeated as necessary, recovered cells were collected, and thereby the cell solution was prepared. After the cell number was counted, the cell solution was adjusted to 2×10^7 cells/mL. The same amount of the cell solution and Matrigel were mixed and adjusted to the final value of 1×10^7 cells/mL. 0.1 mL of the cell Matrigel mixture prepared in the above-described manner was subcutaneously injected to one site of the back of a male nude mouse with testectomy for the transplant. After the transplant, at a time point when the tumor volume reached 100 mm^3 or more, grouping was performed based on the tumor volume to conduct the following experiments.
Test substances were orally administered to the CWR22R subcutaneous tumor-bearing mouse. After an hour, that is, an hour before dissection, androstenedione was administered into the tumor to yield a level of 1 ng/100 mm^3 in the tumor. The composition of the liquid for administering androstenedione included 0.000075% DMF/0.00005% polysorbate 80/9.999875% saline/90% Matrigel. Tumor excision was performed through the dissection, and the tumor was weighed and then frozen for preservation. For the purpose of measuring the background value, the tumor of the mouse to which only the solvent for administering test substances had been orally administered was excised. Subsequently, under the ice cooling, the liquid for administering androstenedione was added thereto, and the resultant was subjected to quick-freezing for preservation.
To the tumor sample preserved through freezing was added a 0.2 M Na-K phosphate buffer (pH 7.4), and thereby a tumor homogenate was prepared under ice cooling by using a homogenizer (polytron). Tert-butyl methyl ether with a 6-fold capacity was added to the tumor homogenate, followed by centrifugation (3000 rpm, 5 min), and the supernatant was transferred to another test tube. While the test tube was maintained at 40° C. in a heat block, the solvent was evaporated by nitrogen gas. 2% BSA-containing 10 mM Tris-Cl buffer (pH 7.4) was added to the test tube and mixed to obtain an extract, and the testosterone concentration was measured by using DELFIA (trademark) Testosterone Reagents R050-201 (manufactured by PerkinElmer, Inc.).
The testosterone production suppression rates (%) of some Reference Example compounds in the tumor of CWR22R tumor-bearing mouse are shown in Table 25. Ex represents a Reference Example number, Inh represents the testosterone production suppression rates upon administration of 10 mg/kg of the Reference Example compounds.

Structure (SMILES)	inhibition at 10 mg/kg
Cc1nc2cc(C(F)(F)F)ccc2n1-c1cccc(C(=O)O)c1 [compound 21, 3-[2-methyl-5-(trifluoromethyl)-1H-benzimidazol-1-yl]benzoic acid]	97%
O=C(O)c1cccc(-n2cnc3cc(C(F)(F)F)ccc32)c1 [compound 20, 3-[5-(trifluoromethyl)-1H-benzimidazol-1-yl]benzoic acid]	89%
O=C(O)c1cccc(-n2c(Cc3ccc(F)cc3)nc3cc(C(F)(F)F)ccc32)c1 [compound 40, 3-[2-(4-fluorobenzyl)-5-(trifluoromethyl)-1H-benzimidazol-1-yl]benzoic acid]	49%
COCCc1cn(-c2cccc(C(=O)O)c2)c2ccc(C(F)(F)F)cc12 [Reference Example 47, 3-[3-(2-methoxyethyl)-5-(trifluoromethyl)-1H-indol-1-yl]benzoic acid]	33%
O=C(O)c1cccc(-n2c(C(F)(F)F)nc3cc(C(F)(F)F)ccc32)c1 [Reference Example 54, 3-[2,5-bis(trifluoromethyl)-1H-benzimidazol-1-yl]benzoic acid]	99%
O=C(O)c1cccc(-n2c(Cc3ccc(Cl)cc3)nc3cc(C(F)(F)F)ccc32)c1 [compound 41, 3-[2-(4-chlorobenzyl)-5-(trifluoromethyl)-1H-benzimidazol-1-yl]benzoic acid]	45%
O=C(O)c1cccc(-n2c(COc3ccc(F)cc3)nc3cc(C(F)(F)F)ccc32)c1 [compound 45]	94%
O=C(O)c1cccc(-n2c(Cc3ccccc3)nc3cc(C(F)(F)F)ccc32)c1 [compound 38, 3-[2-benzyl-5-(trifluoromethyl)-1H-benzimidazol-1-yl]benzoic acid]	66%
O=C(O)c1cccc(-n2c(-c3ccccc3)nc3cc(C(F)(F)F)ccc32)c1 [compound 17, 3-[2-phenyl-5-(trifluoromethyl)-1H-benzimidazol-1-yl]benzoic acid]	75%
Cc1cccc(-c2nc3cc(C(F)(F)F)ccc3n2-c2cccc(C(=O)O)c2)c1 [compound 36, 3-[2-(3-methylphenyl)-5-(trifluoromethyl)-1H-benzimidazol-1-yl]benzoic acid]	45%
CCCc1nc2cc(C(F)(F)F)ccc2n1-c1cccc(C(=O)O)c1 [compound 23, 3-[2-propyl-5-(trifluoromethyl)-1H-benzimidazol-1-yl]benzoic acid]	96%
O=C(O)c1cccc(-n2c(Cc3cccc(F)c3)nc3cc(C(F)(F)F)ccc32)c1 [compound 39, 3-[2-(3-fluorobenzyl)-5-(trifluoromethyl)-1H-benzimidazol-1-yl]benzoic acid]	31%
